Data published in patent US20060089263A1, “2-Propenal and related enal compounds for controlling plant pests and weeds in soil” (priority 2004, published 2006).

What was measured:
Assay type in all cases: in vivo
microbivorous nematodes = assay: Greenhouse nematicidal experiment, microbivorous nematodes in soil and roots; details: for response patterns of nematodes to applications (microbivorous): compared with 2-propenal
Source text: (§1) The nematicidal properties of 2-propenal (CH2═CH—CHO; acrolein), 2-butenal (CH3—CH═CH—CHO; crotonaldehyde), and trans 2-pentenal (CH3—CH2—CH═CH—CHO) were studied in greenhouse experiments with soil severely infected with the reniform nematode (Rotylenchulus reniformis). The soil was collected from a cotton field and was a sandy loam with pH 6.2, organic matter content <1.0% and cation exchange capacity <10 meq/100 gms soil. The soil was mixed 50:50 by volume, with washed fine siliceous river sand and the mixture, here-from referred to as soil. The moist soil (50% field capacity) was apportioned in 1 Kg quantities contained in 4L polyethylene bags. The compounds were applied to the soil in the bags, and after thorough mixing the treated soil was transferred to 1 L capacity, 4-inch-diam. plastic (PVC) pots which were then covered with a polyethylene bag (1 mil) held tightly to the outside wall of the pot with a rubber band. The covered pots were placed on a greenhouse table and after 10 days the bags were removed and soil samples for nematode analyses were collected from each pot. The pots were planted with “Young” soybean (5 seed/pot.) Soybean plants were grown for 8 weeks when they were removed, soil samples taken for nematode analysis (salad bowl incubation technique), and data were collected on shoot height, and fresh weights of shoots and roots. The relative health of the root systems was determined using a subjective scale. […] Values between 1 and 5 represented intermediate degrees of damage. The roots were incubated to assess nematode populations in them.
(§2) Emulsifiable concentrates (EC's) were prepared for all three compounds containing 10% (w/w) emulsogen. The EC's were used to make aqueous emulsions containing 2.5% active ingredient; these emulsions were then used to deliver the compounds to soil. Each compound was delivered using the following rates: 0, 25, 50, 75, 100, 125, 150, 175, 200, 225, 250, 275, 300 mgs/kg soil. In every experiment there were 6 replications (pots) per treatment arranged in a randomized complete block design.
(§3) All data were analyzed according to standard procedures for analysis of variance. Fisher's Least Significant Differences (FLSD) were calculated when F values were significant and are included in the graphs. Curvilineal analyses were conducted according to standard procedures with the TableCurve 2D program.

[1] = tested on: reniform nematode (Rotylenchulus reniformis); assay: Greenhouse nematicidal experiment, soil infested with reniform nematode; details: for response patterns of nematodes to applications (reniform): compared with 2-propenal
Source text: as §1, §2, §3

"Young" soybean = assay: Growth response of soybean plants in treated soil (greenhouse)
Source text: as §1, §2, §3

tomato plant = assay: Tomato plant growth study, vigor rating; set-up: key to TOMATO VIGOR 1-5SCALE: 1 = very little vigor, 5 = very vigorous
Source text: This example together with the data in Table 1 includes results of a study conducted to test the affects of acrolein on tomato plant growth. The first column in Table 1 includes, from left to right the treatment number, the treatment name, the rate of application, and the unit for that rate. The treatment name includes two separate treatment ingredients for each treatment number. The top name of each treatment name lists the test additive, and the bottom listing of the treatment name lists any additional herbicide applied in that particular treatment number. For example, in treatment number 5, methyl bromide was applied with a sandea herbicide. The rate and the rate unit headings, for this study, lists the amount of application of the treatment ingredients in pounds of active ingredients per acre (lb ai/a). Column 2 of Table 1 lists a vigor rating for each tomato plant on a scale of 1 to 5, wherein a 1 rating indicates a tomato plant with very little vigor, and a 5 rating indicates a very vigorous tomato plant. Column 2 lists vigor scale ratings for each treatment number taken on Aug. 17, 2005, and column 3 lists a vigor rating for each treatment taken on Aug. 25, 2005.

[2] = tested on: yellow nutsedge (Cyperus esculentus); assay: Greenhouse herbicidal experiment, post-emergence; details: applied post-emergence
Protocol: Herbicidal properties of the compounds were studied as described for experiments on nematicidal activities. The soil was from a cotton field with a silt loam soil from a cotton field with similar properties as the one used for the nematode experiments. It was infested with a variety of weeds and was artificially seeded with 5 yellow nutsedge tubercles/pot. Nutsedge plants and other weeds were grown for a month, and the pots were then treated with 2-propenal and covered with polyethylene bags for 10 days, when the bags were removed and weed counts taken at two weeks and one month after treatment. Rates used in these experiments were: 0, 100, 200, 300, 400, 500, 600, 700, and 800 mgs/kg soil.
as §3

[3] = 0-300 mgs/kg soil, pre-plant samples
[4] = 50 mgs/kg soil equivalent to 100 lbs/A, pre-plant samples

2-butenal
response patterns of nematodes to applications (microbivorous) (microbivorous nematodes): very similar to those described for 2-propenal | response patterns of nematodes to applications (reniform) [1]: very similar to those described for 2-propenal

2-propenal
shoot height ("Young" soybean; dosages above 50 mgs): gradual decline | shoot weights ("Young" soybean; dosages above 50 mgs): gradual decline | root weights ("Young" soybean; dosages higher than 175 mgs): declined | shoot height ("Young" soybean; dosages ≦50 mgs): Sharp increases | shoot weights ("Young" soybean; dosages ≦50 mgs): Sharp increases | root weights ("Young" soybean; rates up to 175 mgs): increased gradually | root condition ("Young" soybean; subjective scale 1 to 5, rates 25-300 mgs/kg soil): improved by all but the highest dose | populations of microbivorous nematodes in pre-plant samples (microbivorous nematodes; [3]): reduced exponentially | microbivorous populations at the end of the experiment (microbivorous nematodes; 75 mg rate): stimulated | reduction in populations of microbivorous nematodes (microbivorous nematodes; [4]): > 90% | microbivorous populations at the end of the experiment (microbivorous nematodes; applications of ≦100 mgs/kg soil, soil and root samples): recovered | TOMATO VIGOR 1-5SCALE (tomato plant; 17/Aug/05, DRIP 200 lb ai/a, no herbicide): 3.000 | TOMATO VIGOR 1-5SCALE (tomato plant; 17/Aug/05, DRIP 200 lb ai/a, with SANDEA 0.25 lb ai/a): 3.000 | TOMATO VIGOR 1-5SCALE (tomato plant; 17/Aug/05, DRIP 200 lb ai/a, with V-10142 0.25 lb ai/a): 3.000 | TOMATO VIGOR 1-5SCALE (tomato plant; 17/Aug/05, DRIP 400 lb ai/a, no herbicide): 3.000 | TOMATO VIGOR 1-5SCALE (tomato plant; 17/Aug/05, DRIP 400 lb ai/a, with SANDEA 0.25 lb ai/a): 2.750 | TOMATO VIGOR 1-5SCALE (tomato plant; 17/Aug/05, DRIP 400 lb ai/a, with V-10142 0.25 lb ai/a): 3.000 | TOMATO VIGOR 1-5SCALE (tomato plant; 17/Aug/05, DRIP 600 lb ai/a, no herbicide): 1.250 | TOMATO VIGOR 1-5SCALE (tomato plant; 17/Aug/05, DRIP 600 lb ai/a, with SANDEA 0.25 lb ai/a): 1.500 | TOMATO VIGOR 1-5SCALE (tomato plant; 17/Aug/05, DRIP 600 lb ai/a, with V-10142 0.25 lb ai/a): 2.250 | TOMATO VIGOR 1-5SCALE (tomato plant; 17/Aug/05, INJECT 200 lb ai/a, no herbicide, listed as ACROLEIN): 4.250 | TOMATO VIGOR 1-5SCALE (tomato plant; 17/Aug/05, INJECT 200 lb ai/a, no herbicide, listed as acrolein): 4.25 | TOMATO VIGOR 1-5SCALE (tomato plant; 17/Aug/05, INJECT 200 lb ai/a, with SANDEA 0.25 lb ai/a): 4.000 | TOMATO VIGOR 1-5SCALE (tomato plant; 17/Aug/05, INJECT 200 lb ai/a, with V-10142 0.25 lb ai/a): 4.000 | TOMATO VIGOR 1-5SCALE (tomato plant; 17/Aug/05, INJECT 400 lb ai/a, no herbicide, listed as ACROLEIN): 4.000 | TOMATO VIGOR 1-5SCALE (tomato plant; 17/Aug/05, INJECT 400 lb ai/a, no herbicide, listed as acrolein): 4.0 | TOMATO VIGOR 1-5SCALE (tomato plant; 17/Aug/05, INJECT 400 lb ai/a, with SANDEA 0.25 lb ai/a): 3.000 | TOMATO VIGOR 1-5SCALE (tomato plant; 17/Aug/05, INJECT 400 lb ai/a, with V-10142 0.25 lb ai/a): 4.000 | TOMATO VIGOR 1-5SCALE (tomato plant; 17/Aug/05, INJECT 600 lb ai/a, no herbicide): 3.250 | TOMATO VIGOR 1-5SCALE (tomato plant; 17/Aug/05, INJECT 600 lb ai/a, with SANDEA 0.25 lb ai/a): 3.250 | TOMATO VIGOR 1-5SCALE (tomato plant; 17/Aug/05, INJECT 600 lb ai/a, with V-10142 0.25 lb ai/a): 3.250 | TOMATO VIGOR 1-5SCALE (tomato plant; 25/Aug/05, DRIP 200 lb ai/a, no herbicide): 4.000 | TOMATO VIGOR 1-5SCALE (tomato plant; 25/Aug/05, DRIP 200 lb ai/a, with SANDEA 0.25 lb ai/a): 3.750 | TOMATO VIGOR 1-5SCALE (tomato plant; 25/Aug/05, DRIP 200 lb ai/a, with V-10142 0.25 lb ai/a): 3.850 | TOMATO VIGOR 1-5SCALE (tomato plant; 25/Aug/05, DRIP 400 lb ai/a, no herbicide): 3.250 | TOMATO VIGOR 1-5SCALE (tomato plant; 25/Aug/05, DRIP 400 lb ai/a, with SANDEA 0.25 lb ai/a): 3.500 | TOMATO VIGOR 1-5SCALE (tomato plant; 25/Aug/05, DRIP 400 lb ai/a, with V-10142 0.25 lb ai/a): 3.250 | TOMATO VIGOR 1-5SCALE (tomato plant; 25/Aug/05, DRIP 600 lb ai/a, no herbicide): 2.500 | TOMATO VIGOR 1-5SCALE (tomato plant; 25/Aug/05, DRIP 600 lb ai/a, with SANDEA 0.25 lb ai/a): 2.500 | TOMATO VIGOR 1-5SCALE (tomato plant; 25/Aug/05, DRIP 600 lb ai/a, with V-10142 0.25 lb ai/a): 2.900 | TOMATO VIGOR 1-5SCALE (tomato plant; 25/Aug/05, INJECT 200 lb ai/a, no herbicide, listed as ACROLEIN): 4.750 | TOMATO VIGOR 1-5SCALE (tomato plant; 25/Aug/05, INJECT 200 lb ai/a, no herbicide, listed as acrolein): 4.75 | TOMATO VIGOR 1-5SCALE (tomato plant; 25/Aug/05, INJECT 200 lb ai/a, with SANDEA 0.25 lb ai/a): 4.750 | TOMATO VIGOR 1-5SCALE (tomato plant; 25/Aug/05, INJECT 200 lb ai/a, with V-10142 0.25 lb ai/a): 4.750 | TOMATO VIGOR 1-5SCALE (tomato plant; 25/Aug/05, INJECT 400 lb ai/a, no herbicide, listed as ACROLEIN): 5.000 | TOMATO VIGOR 1-5SCALE (tomato plant; 25/Aug/05, INJECT 400 lb ai/a, no herbicide, listed as acrolein): 5.0 | TOMATO VIGOR 1-5SCALE (tomato plant; 25/Aug/05, INJECT 400 lb ai/a, with SANDEA 0.25 lb ai/a): 4.250 | TOMATO VIGOR 1-5SCALE (tomato plant; 25/Aug/05, INJECT 400 lb ai/a, with V-10142 0.25 lb ai/a): 4.650 | TOMATO VIGOR 1-5SCALE (tomato plant; 25/Aug/05, INJECT 600 lb ai/a, no herbicide): 4.250 | TOMATO VIGOR 1-5SCALE (tomato plant; 25/Aug/05, INJECT 600 lb ai/a, with SANDEA 0.25 lb ai/a): 4.000 | TOMATO VIGOR 1-5SCALE (tomato plant; 25/Aug/05, INJECT 600 lb ai/a, with V-10142 0.25 lb ai/a): 3.750 | populations of reniform nematodes in pre-plant samples [1, 3]: reduced exponentially | reduction in populations of reniform nematodes [1, 4]: > 90% | doses resulting in practical elimination of the weed [2]: ≥ 200 mgs/kgs soil

CC/C=C/C=O [2-pentenal, trans-2-pentenal]
response patterns of nematodes to applications (microbivorous) (microbivorous nematodes): very similar to those described for 2-propenal | response patterns of nematodes to applications (reniform) [1]: very similar to those described for 2-propenal

CBr [METHYL BROMIDE 1, methyl bromide, reference compound]
TOMATO VIGOR 1-5SCALE (tomato plant; 17/Aug/05, 350 lb ai/a, no herbicide): 2.500 | TOMATO VIGOR 1-5SCALE (tomato plant; 17/Aug/05, 350 lb ai/a, no herbicide, listed as METHYL BROMIDE 2): 2.250 | TOMATO VIGOR 1-5SCALE (tomato plant; 17/Aug/05, 350 lb ai/a, with SANDEA 0.25 lb ai/a): 2.250 | TOMATO VIGOR 1-5SCALE (tomato plant; 17/Aug/05, 350 lb ai/a, with SANDEA 0.25 lb ai/a, listed as METHYL BROMIDE 2): 2.500 | TOMATO VIGOR 1-5SCALE (tomato plant; 17/Aug/05, 350 lb ai/a, with V-10142 0.25 lb ai/a): 2.000 | TOMATO VIGOR 1-5SCALE (tomato plant; 17/Aug/05, 350 lb ai/a, with V-10142 0.25 lb ai/a, listed as METHYL BROMIDE 2): 2.500 | TOMATO VIGOR 1-5SCALE (tomato plant; 25/Aug/05, 350 lb ai/a, no herbicide): 2.500 | TOMATO VIGOR 1-5SCALE (tomato plant; 25/Aug/05, 350 lb ai/a, with SANDEA 0.25 lb ai/a): 2.750 | TOMATO VIGOR 1-5SCALE (tomato plant; 25/Aug/05, 350 lb ai/a, with SANDEA 0.25 lb ai/a, listed as METHYL BROMIDE 2): 2.500 | TOMATO VIGOR 1-5SCALE (tomato plant; 25/Aug/05, 350 lb ai/a, with V-10142 0.25 lb ai/a): 2.650 | TOMATO VIGOR 1-5SCALE (tomato plant; 25/Aug/05, 350 lb ai/a, with V-10142 0.25 lb ai/a, listed as METHYL BROMIDE 2): 2.500 | change in vigor scale rating over the term of the test (tomato plant; 350 lb ai/a, no additional herbicide): no change
